Assay results reported in patent US8039668B2, “Naphthalene-based inhibitors of anti-apoptotic proteins” (Burnham Institute for Medical Research, priority 2008, dated 2011).
pEC50, pIC50: −log10 of the molar value. Read-outs that look alike come from different tables or passages of the source.

What was measured:
[1] = tested on: human lymphoma RS11846 cell line; assay: Apoptosis, Annexin V-FITC and propidium iodide assay; assay type: cell-based; details: for pEC50: Homo sapiens
Experimental: The apoptotic activity of the compounds against RS11846 cells was assessed by staining with Annexin V- and propidium iodide (PI). Lymphoma cell line, RS11846, was cultured in RPMI 1640 medium (Mediatech Inc., Herndon, Va. 20171) containing 10% fetal bovine serum (Mediatech Inc., Herndon, Va. 20171) and Penicillin/Streptomycin (Mediatech Inc., Herndon, Va. 20171). […] The percentage of viable cells was determined by FITC-Annexin V- and propidium iodide (PI)-labeling, using an Apoptosis Detection kit (BioVision Inc.), and analyzing stained cells by flow cytometry (FACSort; Bectin-Dickinson, Inc.; Mountain View, Calif.). Cells that were annexin-V-negative and PI-negative were considered viable.

H1299 cell line = assay: Cell viability, ATP-LITE assay; assay type: cell-based, human; details: Homo sapiens
Experimental: (§1) The activity of the compounds against human cancer cell lines (PC3ML, H460, H1299, RS11846) were assessed by using the ATP-LITE assay (PerkinElmer). All cells were seeded in either F12 or RPMI1640 medium with 5 mM L-glutamine supplemented with 5% fetal bovine serum (Mediatech Inc.), penicillin and streptomycin (Omega). For maintenance, cells were cultured in 5% FBS. Cells plated into 96 well plates at varying initial densities depending on doubling time. H460 and H1299 plated at 2000 cells/well, A549 and PC3 at 3000 cells/well, and RS118456S at 10,000 cells/well. Compounds were diluted to final concentrations with 0.1% DMSO. Prior to dispensing compounds onto cells, fresh 5% media was placed into wells. Administration of compounds occurred 24 hours after seeding into the fresh media. Cell viability was evaluated using ATP-LITE reagent (PerkinElmer) after 72 hours of treatment. Data were normalized to the DMSO control-treated cells using Prism version 5.01 (Graphpad Software).

PC3ML cells = assay: Cell viability, ATP-LITE assay; assay type: cell-based, human; details: Homo sapiens, PC3-ML
Experimental: as §1

[2] = tested on: H460 human lung cell line; assay: Cell viability, ATP-LITE assay; assay type: cell-based; details: Homo sapiens
Experimental: as §1

BCL-XL [3] = biological target: T1, BCL-XL (Homo sapiens, UniProt Q07817); assay: 1D 1H-NMR binding assay; details: for 1D ^1H-NMR Binding Assay (BCL-XL): Table 9; for 1D ^1H-NMR Binding Assay (BCL-XL): key: +++: Very Active; ++: Active; +: Mild; −: Weak
Experimental: By observing the aliphatic region of the spectra, binding could be readily detected due to chemical shift changes in active site methyl groups of Ile, Leu, Thr, Val or Ala (region between −0.8 and 0.3 ppm). All experiments were performed with a 600 MHz spectrometer Bruker Avance 600 equipped with four rf channels and z-axis pulse-field gradients.
Target sequence in this assay (Q07817 whole entry): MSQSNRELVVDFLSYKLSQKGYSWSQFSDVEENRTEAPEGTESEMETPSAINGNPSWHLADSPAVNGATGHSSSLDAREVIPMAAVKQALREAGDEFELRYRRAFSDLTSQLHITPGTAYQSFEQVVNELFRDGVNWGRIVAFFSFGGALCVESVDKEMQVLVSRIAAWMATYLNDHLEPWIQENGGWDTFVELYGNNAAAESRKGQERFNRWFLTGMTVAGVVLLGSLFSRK

B6Bcl-2 transgenic mice = tested on: B6Bcl-2 transgenic mice
Experimental: Transgenic mice expressing BCL-2 have been described as the B6 line. The BCL-2 transgene res a minigene version of a t(14;18) translocation in which the human BCL-2 gene is fused with the immunoglobulin heavy-chain (IgH) locus and associated IgH enhancer. The transgene was propagated on the Balb/c background.
After 24 hours, B6BCL2 mice were sacrificed by intraperitoneal injection of lethal dose of Avertin. Spleen was removed and weighed. […] Spleen tissue was fixed in z-FIX for 3 days and rinsed in PBS, and saved for histological analysis of spleen (H&E staining and TUNEL assay).

RS11846 cell line = assay: Cell viability, ATP-LITE assay; assay type: cell-based; details: Homo sapiens, read-out: RS11846 EC50 (ATP-LITE assay)
Experimental: as §1

BCL-XL [4] = biological target: T1, BCL-XL; assay: Competitive fluorescence polarization assay (FPA), Bak BH3 peptide; assay type: binding; parameters: 100 nM GST-BCL-XL ΔTM protein; details: Table 9
Experimental: For competitive binding assays, 100 nM GST-BCL-XL ΔTM protein was preincubated with the tested compound at varying concentrations in 47.5 μL PBS (pH=7.4) in 96-well black plates at room temperature for 10 min, then 2.5 μL of 100 nM FITC-labeled Bak BH3 peptide was added to produce a final volume of 50 μL. The wild-type and mutant Bak BH3 peptides were included in each assay plate as positive and negative controls, respectively. […] IC50 was determined by fitting the experimental data to a sigmoidal dose-response nonlinear regression model (SigmaPlot 10.0.1, Systat Software, Inc., San Jose, Calif., USA). Data reported are mean of three independent experiments±standard error (SE). […] Fluorescence polarization was measured after 10 min.
Target sequence in this assay (Q07817 1-209 limits assumed): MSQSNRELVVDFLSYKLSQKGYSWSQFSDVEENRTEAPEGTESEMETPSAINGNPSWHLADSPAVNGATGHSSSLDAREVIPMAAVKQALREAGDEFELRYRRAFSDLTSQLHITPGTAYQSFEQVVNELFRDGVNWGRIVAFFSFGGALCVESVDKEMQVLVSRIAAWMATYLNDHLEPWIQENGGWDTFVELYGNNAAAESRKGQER

[5] = Table 9, read-out: RS11846 EC50 (Annexin V- and propidium iodide assay)
[6] = NCI-H1299, Table 9, read-out: H1299 EC50
[7] = NCI-H460, Table 9, read-out: H460 EC50
[8] = read-out: RS11846 EC50 (Annexin V- and propidium iodide assay), Table 9
[9] = NCI-H1299, read-out: H1299 EC50

Cc1cc2cc(O)c(O)cc2c(O)c1-c1c(C)cc2cc(O)c(O)cc2c1O [Compound 13, 3,3′-dimethyl-2,2′-binaphthyl-1,1′,6,6′,7,7′-hexaol]
pEC50 ([1]; Annexin V-FITC and propidium iodide assay, read-out: EC50 RS11846): 4.61 | induction of apoptosis of the RS11846 cell line ([1]; in words): weak or no apoptosis | pEC50 (H1299 cell line; NCI-H1299, ATP-LITE assay, read-out: EC50 H1299): 4.87 | pEC50 (PC3ML cells; ATP-LITE assay, read-out: EC50 PC3ML): < 5.00 | pEC50 ([2]; NCI-H460, ATP-LITE assay, read-out: EC50 H460): < 5.00 | 1D-^1H NMR (BCL-XL [3]; Table 4, BCL-XL 25 μM, compound 200 μM): − | Tox (B6Bcl-2 transgenic mice; Bcl-2 transgenic mouse, single ip injection 72 μmol/kg): 0 | activity in transgenic mice model (B6Bcl-2 transgenic mice; single ip 72 μmol/kg): no activity

Cc1cc2cc(O)c(O)cc2c(O)c1-c1c(C)cc2cc(O)c(O)cc2c1O [Compound II, 3,3′-dimethyl-2,2′-binaphthyl-1,1′,6,6′ 7,7′-hexaol]
pEC50 [1, 5]: 4.61 | pEC50 (H1299 cell line; [6]): 4.87 | pEC50 (PC3ML cells; Table 9, read-out: PC3ML EC50): 4.90 | pEC50 [2, 7]: 5.00 | pEC50 (RS11846 cell line; Table 9): 5.00 | 1D ^1H-NMR Binding Assay (BCL-XL) (BCL-XL [3]): +

Cc1cc2c(C(=O)C(C)C)c(O)c(O)cc2c(O)c1-c1c(C)cc2c(C(=O)C(C)C)c(O)c(O)cc2c1O [Compound III, 1,1′-(1,1′,6,6′,7,7′-hexahydroxy-3,3′-dimethyl-2,2′-binaphthyl-5,5′-diyl)bis(2-methylpropan-1-one)]
pEC50 [1, 8]: 4.83 | pEC50 (H1299 cell line; [9]): 5.32 | pEC50 (PC3ML cells; read-out: PC3ML EC50, Table 9): 5.41 | pEC50 ([2]; NCI-H460, read-out: H460 EC50): 5.82 | pEC50 (RS11846 cell line): 4.82 | 1D ^1H-NMR Binding Assay (BCL-XL) (BCL-XL [3]): ++

Cc1cc2c(C(=O)CC(C)C)c(O)c(O)cc2c(O)c1-c1c(C)cc2c(C(=O)CC(C)C)c(O)c(O)cc2c1O [Compound IV, 1,1′-(1,1′,6,6′,7,7′-hexahydroxy-3,3′-dimethyl-2,2′-binaphthyl-5,5′-diyl)bis(3-methylbutan-1-one)]
pIC50 (BCL-XL [4]; read-out: FPA IC50 (BCL-XL)): 5.89 | pEC50 [1, 5]: 4.86 | pEC50 (H1299 cell line; [6]): 5.44 | pEC50 (PC3ML cells; Table 9, read-out: PC3ML EC50): 5.12 | pEC50 [2, 7]: 5.96 | pEC50 (RS11846 cell line; Table 9): 5.00 | 1D ^1H-NMR Binding Assay (BCL-XL) (BCL-XL [3]): +

Cc1cc2c(C(=O)c3ccc(-c4ccccc4)cc3)c(O)c(O)cc2c(O)c1-c1c(C)cc2c(C(=O)c3ccc(-c4ccccc4)cc3)c(O)c(O)cc2c1O [Compound IX, (1,1′,6,6′,7,7′-hexahydroxy-3,3′-dimethyl-2,2′-binaphthyl-5,5′-diyl)bis(biphenyl-4-ylmethanone)]
pEC50 [1, 8]: 4.59 | pEC50 (H1299 cell line; [9]): 5.02 | pEC50 (PC3ML cells; read-out: PC3ML EC50, Table 9): 5.11 | pEC50 ([2]; NCI-H460, read-out: H460 EC50): 5.09 | pEC50 (RS11846 cell line): 5.55 | 1D ^1H-NMR Binding Assay (BCL-XL) (BCL-XL [3]): +

CCCCC(CC)CC(=O)c1c(O)c(O)cc2c(O)c(-c3c(C)cc4c(C(=O)CC(CC)CCCC)c(O)c(O)cc4c3O)c(C)cc12 (stereo not drawn) [Compound V, 1,1′-(1,1′,6,6′,7,7′-hexahydroxy-3,3′-dimethyl-2,2′-binaphthyl-5,5′-diyl)bis(3-ethylheptan-1-one)]
pIC50 (BCL-XL [4]; read-out: FPA IC50 (BCL-XL)): 5.89 | pEC50 [1, 5]: 5.18 | pEC50 (H1299 cell line; [6]): 5.52 | pEC50 (PC3ML cells; Table 9, read-out: PC3ML EC50): 5.52 | pEC50 [2, 7]: 5.82 | pEC50 (RS11846 cell line; Table 9): 5.55 | 1D ^1H-NMR Binding Assay (BCL-XL) (BCL-XL [3]): +

Cc1cc2c(C(=O)c3ccccc3)c(O)c(O)cc2c(O)c1-c1c(C)cc2c(C(=O)c3ccccc3)c(O)c(O)cc2c1O [Compound VII, (1,1′,6,6′,7,7′-hexahydroxy-3,3′-dimethyl-2,2′-binaphthyl-5,5′-diyl)bis(phenylmethanone)]
pIC50 (BCL-XL [4]; read-out: FPA IC50 (BCL-XL)): 5.54 | pEC50 [1, 5]: 4.74 | pEC50 (H1299 cell line; [6]): 5.38 | pEC50 (PC3ML cells; Table 9, read-out: PC3ML EC50): 5.44 | 1D ^1H-NMR Binding Assay (BCL-XL) (BCL-XL [3]): +

Cc1cc2c(C(=O)c3ccc(C(C)(C)C)cc3)c(O)c(O)cc2c(O)c1-c1c(C)cc2c(C(=O)c3ccc(C(C)(C)C)cc3)c(O)c(O)cc2c1O [Compound X, (1,1′,6,6′,7,7′-hexahydroxy-3,3′-dimethyl-2,2′-binaphthyl-5,5′-diyl)bis((4-tert-butylphenyl)methanone)]
pEC50 [1, 5]: 4.87 | pEC50 (H1299 cell line; [6]): 5.32 | pEC50 (PC3ML cells; Table 9, read-out: PC3ML EC50): 5.55 | pEC50 [2, 7]: 5.44 | pEC50 (RS11846 cell line; Table 9): 5.64 | 1D ^1H-NMR Binding Assay (BCL-XL) (BCL-XL [3]): −

Cc1cc2c(C(=O)c3ccc(C(F)(F)F)cc3)c(O)c(O)cc2c(O)c1-c1c(C)cc2c(C(=O)c3ccc(C(F)(F)F)cc3)c(O)c(O)cc2c1O [Compound XI, (1,1′,6,6′,7,7′-hexahydroxy-3,3′-dimethyl-2,2′-binaphthyl-5,5′-diyl)bis((4-(trifluoromethyl)phenyl)methanone)]
pIC50 (BCL-XL [4]; read-out: FPA IC50 (BCL-XL)): 6.60 | pEC50 [1, 5]: 5.26 to 5.52 | pEC50 (H1299 cell line; [6]): 5.70 | pEC50 (PC3ML cells; Table 9, read-out: PC3ML EC50): 5.54 | pEC50 [2, 7]: 5.66 | pEC50 (RS11846 cell line; Table 9): 5.60 | 1D ^1H-NMR Binding Assay (BCL-XL) (BCL-XL [3]): +

Cc1cc2c(C(=O)Cc3cccc(Br)c3)c(O)c(O)cc2c(O)c1-c1c(C)cc2c(C(=O)Cc3cccc(Br)c3)c(O)c(O)cc2c1O [Compound XIII, 1,1′-(1,1′,6,6′,7,7′-hexahydroxy-3,3′-dimethyl-2,2′-binaphthyl-5,5′-diyl)bis(2-(3-bromophenyl)ethanone)]
pIC50 (BCL-XL [4]; FPA IC50 (BCL-XL)): 5.88 | pEC50 [1, 8]: 5.28 | pEC50 (H1299 cell line; [9]): 5.59 | pEC50 (PC3ML cells; read-out: PC3ML EC50, Table 9): 5.51 | pEC50 ([2]; NCI-H460, read-out: H460 EC50): 5.57 | pEC50 (RS11846 cell line): 5.08 | 1D ^1H-NMR Binding Assay (BCL-XL) (BCL-XL [3]): ++

Cc1cc2c(C(=O)Cc3ccc(OC(F)(F)F)cc3)c(O)c(O)cc2c(O)c1-c1c(C)cc2c(C(=O)Cc3ccc(OC(F)(F)F)cc3)c(O)c(O)cc2c1O [Compound XIV, 1,1′-(1,1′,6,6′,7,7′-hexahydroxy-3,3′-dimethyl-2,2′-binaphthyl-5,5′-diyl)bis(2-(4-(trifluoromethoxy)phenyl)ethanone)]
pIC50 (BCL-XL [4]; FPA IC50 (BCL-XL)): 5.89 | pEC50 [1, 8]: 5.21 | pEC50 (H1299 cell line; [9]): 5.41 | pEC50 (PC3ML cells; read-out: PC3ML EC50, Table 9): 5.72 | pEC50 ([2]; NCI-H460, read-out: H460 EC50): 5.48 | pEC50 (RS11846 cell line): 5.74 | 1D ^1H-NMR Binding Assay (BCL-XL) (BCL-XL [3]): ++

Cc1cc2c(C(=O)CC3CCCCC3)c(O)c(O)cc2c(O)c1-c1c(C)cc2c(C(=O)CC3CCCCC3)c(O)c(O)cc2c1O [Compound XV, 1,1′-(1,1′,6,6′,7,7′-hexahydroxy-3,3′-dimethyl-2,2′-binaphthyl-5,5′-diyl)bis(2-cyclohexylethanone)]
pEC50 [1, 5]: 5.28 | pEC50 (H1299 cell line; [6]): 5.68 | pEC50 (PC3ML cells; Table 9, read-out: PC3ML EC50): 5.72 | pEC50 [2, 7]: 5.74 | pEC50 (RS11846 cell line; Table 9): 5.70 | 1D ^1H-NMR Binding Assay (BCL-XL) (BCL-XL [3]): +
